Values belong to the molecule of their own block, whether it stands above or below them.
What was measured:
[1] = Pharmacokinetic study in plasma after oral hexanic extract of Tagetes lucida, healthy and LPS-damaged mice; type: in vivo, ICR mice; details: for amount of drug available in the plasma, LPS mice compared to healthy subjects / Cmax / AUC(0-inf) / MRT / Tmax / half-life / AUC(0-t) / Cl/F: 10 mg/kg oral hexanic extract; for amount of drug available in the plasma, LPS mice compared to healthy subjects: concentration-time profiles (Figure 3); for Cmax / AUC(0-inf) / MRT / Tmax / half-life / AUC(0-t): ICR, mouse, po, 10 mg/kg; for Cmax: non-compartmental; for Cmax / AUC(0-inf) / MRT / Tmax / half-life / AUC(0-t) / Cl/F: mean ± SEM (n = 5); for AUC(0-t): to 6 h
Description: The optimized HPLC-validated method for the quantification of coumarins present in the hexane extract of T. lucida was used to evaluate the concentration profiles over time in the plasma, brain, kidney, and spleen biological matrices after an oral administration of 10 mg/kg of the extract.
Blood samples were obtained from the retro-orbital sinus of mice and collected in heparinized tubes. Plasma was separated by centrifugation at 3500 rpm for 5 min and stored in new Eppendorf tubes at −70 °C, until further processing.
One hundred microliters of plasma and organs samples, spiked with calibration and QC concentration or samples from the pharmacokinetic study, were mixed with 300 µL of acetonitrile containing the IS at 10 µg/mL for protein precipitation, and vortexed for 3 min. Then, 200 µL of dichloromethane were added, for liquid–liquid extraction of the bioactive compounds, and vortexed for 5 min. The mixture was centrifuged at 14,000 rpm for 10 min, and the extracted organic layers were placed in new tubes, until completely dry at room temperature. For quantitative analysis, samples were resuspended in 100 µL of methanol, transferred to sampling vials, and injected into the chromatographic system, described below.
A pharmacokinetic study was carried out in sixty mice, divided in six subgroups, according to sample collection times. An acute inflammation process by the intraperitoneal (i.p.) administration of LPS at 2 mg/kg was induced in half of the mice per group, while the other half received an i.p. injection of saline solution. Ten min after the damage was induced, the mice were administered with an oral dose of 10 mg/kg of the bioactive fraction dissolved in a 1% Tween-20 aqueous solution. Blood and tissue samples were obtained and processed at 0, 0.25, 0.75, 1.5, 2, 4, and 6 h post-dosing, as indicated in the “Samples collection” and “Plasma and tissue samples processing” sections.
Pharmacokinetic parameters of PE, SC, DF, HR, and PU in plasma were calculated by PKSolver software.

[2] = Stability of the analytes in spiked plasma, brain, kidney and spleen matrices (autosampler, long-term, freeze-thaw); type: physicochemical, mice; details: for Stability Autosampler RE (%): processed samples in autosampler vials 24 h room temperature; for Stability Freeze-Thaw RE (%): three cycles (−4 °C to 25 °C); for Stability Long-Term RE (%): −70 °C for 30 days
Description: The stability of the compounds obtained from each enriched matrices at the QC concentrations was evaluated under different conditions that covered the processing, handling, and storage phases that could be developed throughout the study.
Individual stock solutions of PE, SC, DF, HR, PU, and rutin (IS) were prepared separately in methanol (1 mg/mL) and stored at −4 °C until use. From the stocks, a working solution in methanol was prepared at a concentration of 200 µg/mL of each coumarin. Blank plasma or organs supernatant samples (80 µL) were spiked with 20 µL of serial dilutions of working solution to obtain calibration curves ranging between 0.156, 0.312, 0.625, 1.25, 2.5, 5, 10, 20, and 40 µg/mL of each coumarin. Quality control (QC) samples were prepared at three levels of 0.3 (low), 3 (medium), and 30 (high) µg/mL for each coumarin.
The stability of the analytes in plasma, brain, kidneys, and spleen was evaluated by the analyzed concentrations of QC subjected to three different conditions. Short-term stability was determined by analysis of samples processed in the autosampler vials at 24 h at room temperature. Long-term stability was tested on samples stored at −70 °C for 30 days. Freeze-thaw stability was determined after three cycles (−4 °C to 25 °C) on three consecutive days.

[3] = plasma, LPS-damaged ICR mice (LPS 2 mg/kg i.p.)

- Stability Autosampler RE (%) ([2]; brain, nominal 0.3 µg/mL): -4.07%
- Stability Freeze-Thaw RE (%) ([2]; brain, nominal 0.3 µg/mL): 0.03%
- Stability Long-Term RE (%) ([2]; brain, nominal 0.3 µg/mL): -0.62%
- Stability Autosampler RE (%) ([2]; brain, nominal 3.0 µg/mL): 3.73%
- Stability Freeze-Thaw RE (%) ([2]; brain, nominal 3.0 µg/mL): -6.72%
- Stability Long-Term RE (%) ([2]; brain, nominal 3.0 µg/mL): 0.46%
- Stability Autosampler RE (%) ([2]; brain, nominal 30.0 µg/mL): 3.21%
- Stability Freeze-Thaw RE (%) ([2]; brain, nominal 30.0 µg/mL): -0.35%
- Stability Long-Term RE (%) ([2]; brain, nominal 30.0 µg/mL): -4.35%
- Stability Autosampler RE (%) ([2]; kidney, nominal 0.3 µg/mL): 5.83%
- Stability Freeze-Thaw RE (%) ([2]; kidney, nominal 0.3 µg/mL): -0.65%
- Stability Long-Term RE (%) ([2]; kidney, nominal 0.3 µg/mL): 5.19%
- Stability Autosampler RE (%) ([2]; kidney, nominal 3.0 µg/mL): 4.79%
- Stability Freeze-Thaw RE (%) ([2]; kidney, nominal 3.0 µg/mL): 0.82%
- Stability Long-Term RE (%) ([2]; kidney, nominal 3.0 µg/mL): 8.12%
- Stability Autosampler RE (%) ([2]; kidney, nominal 30.0 µg/mL): 0.66%
- Stability Freeze-Thaw RE (%) ([2]; kidney, nominal 30.0 µg/mL): 0.47%
- Stability Long-Term RE (%) ([2]; kidney, nominal 30.0 µg/mL): 5.67%
- Stability Autosampler RE (%) ([2]; plasma, nominal 0.3 µg/mL): 2.59%
- Stability Freeze-Thaw RE (%) ([2]; plasma, nominal 0.3 µg/mL): -12.33%
- Stability Long-Term RE (%) ([2]; plasma, nominal 0.3 µg/mL): -6.74%
- Stability Autosampler RE (%) ([2]; plasma, nominal 3.0 µg/mL): -1.38%
- Stability Freeze-Thaw RE (%) ([2]; plasma, nominal 3.0 µg/mL): 2.47%
- Stability Long-Term RE (%) ([2]; plasma, nominal 3.0 µg/mL): -3.13%
- Stability Autosampler RE (%) ([2]; plasma, nominal 30.0 µg/mL): 4.21%
- Stability Freeze-Thaw RE (%) ([2]; plasma, nominal 30.0 µg/mL): 0.49%
- Stability Long-Term RE (%) ([2]; plasma, nominal 30.0 µg/mL): -3.40%
- Stability Autosampler RE (%) ([2]; spleen, nominal 0.3 µg/mL): 6.88%
- Stability Freeze-Thaw RE (%) ([2]; spleen, nominal 0.3 µg/mL): -0.67%
- Stability Long-Term RE (%) ([2]; spleen, nominal 0.3 µg/mL): 5.43%
- Stability Autosampler RE (%) ([2]; spleen, nominal 3.0 µg/mL): -1.66%
- Stability Freeze-Thaw RE (%) ([2]; spleen, nominal 3.0 µg/mL): 0.49%
- Stability Long-Term RE (%) ([2]; spleen, nominal 3.0 µg/mL): 7.09%
- Stability Autosampler RE (%) ([2]; spleen, nominal 30.0 µg/mL): 1.50%
- Stability Freeze-Thaw RE (%) ([2]; spleen, nominal 30.0 µg/mL): -1.06%
- Stability Long-Term RE (%) ([2]; spleen, nominal 30.0 µg/mL): 7.60%
Compound: COc1cc2ccc(=O)oc2c(OC)c1OC [DF, dimethylfraxetin]
- amount of drug available in the plasma, LPS mice compared to healthy subjects [1]: three-fold higher
- Cmax [1, 3]: 1820 ± 270 ng/mL
- AUC(0-inf) ([1]; plasma, LPS-damaged ICR mice): 3610 ± 400 ng·h/mL
- MRT ([1]; plasma, LPS-damaged ICR mice): 2.72 ± 0.3 h
- Tmax ([1]; plasma, LPS-damaged ICR mice): 0.6 ± 0.24 h
- half-life ([1]; plasma, LPS-damaged ICR mice): 1.5 ± 0.37 h
- AUC(0-t) ([1]; plasma, LPS-damaged ICR mice): 3250 ± 310 ng·h/mL
- AUC(0-inf) ([1]; plasma, healthy ICR mice): 1710 ± 190 ng·h/mL
- MRT ([1]; plasma, healthy ICR mice): 2.35 ± 0.33 h
- Tmax ([1]; plasma, healthy ICR mice): 1.2 ± 0.31 h
- half-life ([1]; plasma, healthy ICR mice): 0.98 ± 0.27 h
- Cmax ([1]; plasma, healthy ICR mice): 580 ± 20 ng/mL
- AUC(0-t) ([1]; plasma, healthy ICR mice): 1640 ± 170 ng·h/mL
- pharmacokinetic characteristics in words ([1]; LPS-treated mice, plasma, Figure 3b, 3c): fast distribution and subsequent elimination
- Cl/F ([1]; plasma, LPS-damaged ICR mice): 28.81 ± 2.51 (mg/kg)/(μg/mL)/h
- increase in the Cmax in the damaged animals versus healthy ([1]; plasma, LPS-damaged vs healthy mice): up to three times more
- Cl/F ([1]; plasma, healthy ICR mice): 62.45 ± 9.38 (mg/kg)/(μg/mL)/h

- Stability Autosampler RE (%) ([2]; brain, nominal 0.3 µg/mL): -3.47%
- Stability Freeze-Thaw RE (%) ([2]; brain, nominal 0.3 µg/mL): -0.69%
- Stability Long-Term RE (%) ([2]; brain, nominal 0.3 µg/mL): -0.21%
- Stability Autosampler RE (%) ([2]; brain, nominal 3.0 µg/mL): 2.31%
- Stability Freeze-Thaw RE (%) ([2]; brain, nominal 3.0 µg/mL): -5.14%
- Stability Long-Term RE (%) ([2]; brain, nominal 3.0 µg/mL): -0.98%
- Stability Autosampler RE (%) ([2]; brain, nominal 30.0 µg/mL): 3.86%
- Stability Freeze-Thaw RE (%) ([2]; brain, nominal 30.0 µg/mL): -1.02%
- Stability Long-Term RE (%) ([2]; brain, nominal 30.0 µg/mL): -4.72%
- Stability Autosampler RE (%) ([2]; kidney, nominal 0.3 µg/mL): 8.17%
- Stability Freeze-Thaw RE (%) ([2]; kidney, nominal 0.3 µg/mL): 2.03%
- Stability Long-Term RE (%) ([2]; kidney, nominal 0.3 µg/mL): 5.12%
- Stability Autosampler RE (%) ([2]; kidney, nominal 3.0 µg/mL): 2.81%
- Stability Freeze-Thaw RE (%) ([2]; kidney, nominal 3.0 µg/mL): -0.62%
- Stability Long-Term RE (%) ([2]; kidney, nominal 3.0 µg/mL): 3.06%
- Stability Autosampler RE (%) ([2]; kidney, nominal 30.0 µg/mL): 1.35%
- Stability Freeze-Thaw RE (%) ([2]; kidney, nominal 30.0 µg/mL): 2.25%
- Stability Long-Term RE (%) ([2]; kidney, nominal 30.0 µg/mL): 3.32%
- Stability Autosampler RE (%) ([2]; plasma, nominal 0.3 µg/mL): 8.34%
- Stability Freeze-Thaw RE (%) ([2]; plasma, nominal 0.3 µg/mL): 0.67%
- Stability Long-Term RE (%) ([2]; plasma, nominal 0.3 µg/mL): 9.39%
- Stability Autosampler RE (%) ([2]; plasma, nominal 3.0 µg/mL): 12.83%
- Stability Freeze-Thaw RE (%) ([2]; plasma, nominal 3.0 µg/mL): -7.90%
- Stability Long-Term RE (%) ([2]; plasma, nominal 3.0 µg/mL): 3.99%
- Stability Autosampler RE (%) ([2]; plasma, nominal 30.0 µg/mL): 14.32%
- Stability Freeze-Thaw RE (%) ([2]; plasma, nominal 30.0 µg/mL): -5.47%
- Stability Long-Term RE (%) ([2]; plasma, nominal 30.0 µg/mL): 3.55%
- Stability Autosampler RE (%) ([2]; spleen, nominal 0.3 µg/mL): 5.46%
- Stability Freeze-Thaw RE (%) ([2]; spleen, nominal 0.3 µg/mL): -0.63%
- Stability Long-Term RE (%) ([2]; spleen, nominal 0.3 µg/mL): 0.22%
- Stability Autosampler RE (%) ([2]; spleen, nominal 3.0 µg/mL): -0.16%
- Stability Freeze-Thaw RE (%) ([2]; spleen, nominal 3.0 µg/mL): 4.87%
- Stability Long-Term RE (%) ([2]; spleen, nominal 3.0 µg/mL): 7.44%
- Stability Autosampler RE (%) ([2]; spleen, nominal 30.0 µg/mL): 1.18%
- Stability Freeze-Thaw RE (%) ([2]; spleen, nominal 30.0 µg/mL): 0.49%
- Stability Long-Term RE (%) ([2]; spleen, nominal 30.0 µg/mL): 2.92%
Compound: COc1ccc2ccc(=O)oc2c1 [HR, herniarin]
- amount of drug available in the plasma, LPS mice compared to healthy subjects [1]: three-fold higher
- Cmax [1, 3]: 1480 ± 190 ng/mL
- AUC(0-inf) ([1]; plasma, LPS-damaged ICR mice): 3210 ± 380 ng·h/mL
- MRT ([1]; plasma, LPS-damaged ICR mice): 2.77 ± 0.25 h
- Tmax ([1]; plasma, LPS-damaged ICR mice): 0.25 h
- half-life ([1]; plasma, LPS-damaged ICR mice): 1.49 ± 0.35 h
- AUC(0-t) ([1]; plasma, LPS-damaged ICR mice): 2950 ± 280 ng·h/mL
- AUC(0-inf) ([1]; plasma, healthy ICR mice): 1030 ± 140 ng·h/mL
- MRT ([1]; plasma, healthy ICR mice): 2.77 ± 0.35 h
- Tmax ([1]; plasma, healthy ICR mice): 0.95 ± 0.35 h
- half-life ([1]; plasma, healthy ICR mice): 1.66 ± 0.46 h
- Cmax ([1]; plasma, healthy ICR mice): 620 ± 340 ng/mL
- AUC(0-t) ([1]; plasma, healthy ICR mice): 920 ± 120 ng·h/mL
- Cl/F ([1]; plasma, LPS-damaged ICR mice): 32.50 ± 2.91 (mg/kg)/(μg/mL)/h
- Cl/F ([1]; plasma, healthy ICR mice): 103.7 ± 13.0 (mg/kg)/(μg/mL)/h
